Entries after “also recorded” stand apart in the source; their conditions may differ.
Tests used:
Type in all cases: cell-based, human
HaCaT cells [1] = test: Cell attachment (crystal violet absorbance) after UVB radiation
Description: 5×10^4 HaCaT cells were seeded into each well of four 6-well tissue culture plates and incubated at 37° C. and 5% CO2 for 24 hours. One hour before UVB irradiation, two plates were treated with IP-6 (0 and 0.1 mM), one for IP-6 pre-treatment and the other for IP-6 pre-treatment and post-treatment. All four plates were then washed twice with PBS 1×, and a small amount of PBS 1× was added to the wells, which were irradiated at 30 mJ/cm^2. After UVB exposure, PBS was removed from the wells and DMEM media was added to each well. IP-6 (0.05 and 0.1 mM) was then added to the plates labeled no UVB exposure, IP-6 post-treatment, and pre-treatment and post-treatment. The cells were then incubated (37° C. and 5% CO2) for 18 hours. Following incubation, the cells were washed 4 times with PBS 1× (pH 7.4), then fixed with 4.0% formaldehyde for 15 minutes, and stained with 0.5% aqueous crystal violet for at least 5 minutes. Excess crystal violet was washed from the wells and the plates were left to dry. The dried crystal violet residue in each well was then dissolved in 500 μL of 30% acetic acid. The absorbance was read at 595 nm in triplicate in a 96-well plate using an EL Ultra Micro-plate Reader. Additionally, 5×10^4 HaCaT cells were plated into each well of ten 6-well plates as was done above. Before UVB irradiation, cells were washed twice with PBS 1×, and a small amount of PBS 1× was added to the wells. Cells were then exposed to no UVB, or 15, 30, 60, or 120 mJ/cm^2 intensities. Following exposure, cell media was added to the wells and cells were treated with IP-6 (0-2.0 mM). The cells were then incubated at 37° C. and 5% CO2. 18 hours after UVB exposure, cells were fixed with 4% formaldehyde, stained with 0.5% aqueous crystal violet and dissolved with 30% acetic acid as was done above. The absorbance was read in triplicate at 595 nm.

[2] = test system: caspase-3 activation of HaCaT cells; test: Fluorometric CaspACE assay of activated caspase-3 activity
Description: FIG. 4. Effect of IP-6 and UVB radiation on caspase-3 activation of HaCaT cells. To assess activated caspase-3 activity, cells were either not exposed or exposed to 30 mJ/cm^2 UVB radiation, and then either treated with 1.0 mM Na-IP-6 or not treated with IP-6. Eighteen hours later, cells were harvested and fluorometric CaspACE assays were performed. Activated caspase-3 activity is represented as relative fluorescence units. **Significant at p<0.01, as compared to the group exposed to UVB but not treated with IP-6. The concentration of inositol in the media is 38.8 μM.
HaCaT cells were plated in 60 mm tissue culture dishes for 24 hours. The cells were either exposed to 30 mJ/cm^2 UVB radiation or not exposed. […] 10 μL of sample was then combined with caspase assay buffer (312.5 mM HEPES (pH 7.5), 31.25% sucrose, 0.3125% CHAPS (3-[(3-cholamido-propyl)-dimethyl ammonio]-1 propane-sulfonate, 2% DMSO, 10 mM DTT) containing 50 μM caspase-3 substrate, Ac-DEVD-AMC, in white 96 well microtiter plates. Negative control wells included 2 μL of 2.5 mM specific peptide inhibitor of caspase-3 (Ac-DEVD-CHO). The plate was incubated at 30° C. for 1 hour. The free reaction product, AMC was then measured using a fluorescent plate reader with an excitation wavelength of 360 nm and an emission wavelength of 460 nm. Caspase-3 activity was reported as relative fluorescent intensity of AMC.

HaCaT cells [3] = test: Cell cycle distribution by PI flow cytometry after UVB radiation
Description: (§1) HaCaT cells were plated in 60 mm tissue culture dishes for 24 hours. The cells were then either not exposed, or exposed, to 30 mJ/cm^2 UVB radiation and treated immediately with 0, 0.5 mM, or 1.0 mM IP-6. Cells were harvested 6 and 18 hours after UVB exposure. 5 μL of RNase (DNase-free) was added to 10^6 cells/mL. The cell suspension was incubated at 37° C. for 30 minutes. The suspension was then chilled on ice (2-8° C.). 100 μL of PI was added to the cell suspension (Cellular DNA flow cytometric analysis kit, Roche Diagnostics, Indianapolis, Ind.). DNA quantitation was performed on the same day by flow cytometry using FACS.

HaCaT cells [4] = test: MTT assay of cell viability and proliferation after UVB radiation
Description: The human keratinocyte (HaCaT) cells were grown in Dulbecco's Modified Eagle's Medium containing 7 mg/L of inositol (38.8 μM), supplemented with 10% heat-inactivated fetal bovine serum, 1% L-glutamine, and 1% antibiotic (penicillin, streptomycin). Cells were maintained at 37° C. and 5% CO2. Na-IP-6 was diluted from a 100 mM stock solution to the required concentrations (0.05-2.0 mM) using cell culture medium as the diluent. UVB intensities of 15, 30, 60 and 120 mJ/cm^2 were used, which was obtained by varying cell exposure time to UVB light (80% of light output is in 290-320 nm UVB range).
HaCaT cells were grown to approximately 80-90% confluency. 100 μL of 1×10^4 cells/mL HaCaT cells were seeded into each well of four 96-well plates. Cells were treated with IP-6 (0-2.0 mM), and on days 0, 1, 2, and 3, 100 μL of 1 mg/mL of aqueous MTT dissolved in DMEM media was added to each well and plates were placed into the incubator (37° C. and 5% CO2) for 4 hours. 150 μL of DMSO was then added to dissolve the formazan products. The absorbance was read at 540 nm using an EL Ultra Micro-plate Reader. Results were recorded as mean absorbance for each set of groups. […]
To determine if IP-6 protects HaCaT cells from UVB-induced injury, The MTT assay was performed as done above. […] Results were recorded as the mean absorbance for each set of groups.

HaCaT cells [5] = test: Annexin V and PI staining, flow cytometry (apoptotic, necrotic, viable cells) after UVB radiation; details: UVB-exposed
Description: as §1, with “FIG. 3. Effect of IP-6 and UVB radiation on cell cycle distribution of HaCaT cells. For annexin V and PI staining cells were either not exposed or exposed to 30 mJ/cm^2 UVB radiation, then either treated with 1.0 mM Na-IP-6 or not treated with IP-6. Eighteen hours later, cells were harvested and double stained with annexin V and PI and analyzed by flow cytometry. The number of cells that are present in apoptosis, necrosis or are viable are represented as percentages; p<0.001, as compared to the group exposed to UVB but not treated with IP-6. The concentration of inositol in the media is 38.8 μM. HaCaT” for “HaCaT”

[6] = 0.5 mM IP-6, vs UVB without IP-6
[7] = 0.5 and 1.0 mM IP-6, vs UVB without IP-6, p<0.001

O=P(O)(O)O[C@H]1[C@H](OP(=O)(O)O)[C@@H](OP(=O)(O)O)[C@H](OP(=O)(O)O)[C@@H](OP(=O)(O)O)[C@H]1OP(=O)(O)O [IP-6, inositol hexaphosphate]
cell attachment (HaCaT cells [1]; UVB 15 mJ/cm^2, 18 h, higher IP-6 concentrations (1.0 and 2.0 mM), vs non-IP-6 treated group): decrease in cell attachment
cell attachment (HaCaT cells [1]; UVB 15 mJ/cm^2, 18 h, lower IP-6 concentrations, vs non-IP-6 treated group): increase in cell attachment
cell attachment (HaCaT cells [1]; UVB 30 mJ/cm^2, 18 h, vs irradiated cells without IP-6, p<0.01 (FIG. 2: 0.5, 1.0 and 2.0 mM)): significant increase in HaCaT cell attachment with increasing concentrations of IP-6
cell attachment (HaCaT cells [1]; UVB 60 mJ/cm^2, 18 h, vs irradiated cells without IP-6): decrease in cell attachment
cell attachment (HaCaT cells [1]; UVB 120 mJ/cm^2, 18 h, vs irradiated cells without IP-6): decrease in cell attachment
activated caspase-3 activity ([2]; 1.0 mM IP-6, no UVB, 18 hours, vs control group): increase in activated caspase-3 activity
activated caspase-3 activity ([2]; UVB 30 mJ/cm^2 + 1.0 mM IP-6, 18 hours, vs UVB without IP-6, p<0.01): significantly lowered
G2M phase, 1.0 mM vs 0.5 mM treatment (HaCaT cells [3]; 18 hours after UVB 30 mJ/cm^2): comparable
effect on different phases of the cell cycle, 6 vs 18 hour (HaCaT cells [3]; UVB 30 mJ/cm^2, IP-6 0.5 or 1.0 mM): no time-dependent differences
cell viability and proliferation (MTT) (HaCaT cells [4]; UVB 15-120 mJ/cm^2, IP-6 0-2.0 mM added immediately after UVB, read 24 h later, p<0.001): increase in cell viability with increasing concentration of IP-6; also recorded: significant increase in relative cell viability with increasing IP-6 concentrations
cell viability (MTT), normal trend (HaCaT cells [4]; normal trend with higher IP-6 concentration (without the UVB effect)): decrease in cell viability with higher concentration of IP-6
percentage of apoptotic cells (HaCaT cells [5]; [6]): significant decrease
percentage of necrotic cells (HaCaT cells [5]; [6]): significant decrease
percentage of viable cells (HaCaT cells [5]; [6]): significant increase
apoptotic, necrotic and viable cells, effects relative to 0.5 mM (HaCaT cells [5]; 1.0 mM IP-6): much more pronounced
apoptotic cells, dose dependence (HaCaT cells [5]; [7]): dose-dependent decrease
necrotic cells, dose dependence (HaCaT cells [5]; [7]): dose-dependent decrease
viable cells (HaCaT cells [5]; [7]): increase in viable cells

Reference: patent publication US20070293458A1, “Prevention of nuclear, solar, and other radiation-induced tissue damage” (IP-6 Research Inc., priority 2006, published 2007)
